Measured values from ChEMBL document CHEMBL1201862, “PubChem BioAssay data set” (2004).
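1) Cells in 96-well plates. 2) Compound, 48 h, 5 concentrations. 3) Linear interpolation between surrounding doses. 4) Unreached endpoint = highest concentration. Here, GI50 denotes the concentration required for 50% inhibition of growth.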 Calls of active or inactive are those of the source. Cut-off read from the data, not from the text of the source: active = GI50 up to about 1.1 µM and inactive = higher.

How the values were obtained:
Experiment in all cases: growth of human tumour cells (NCI), 48 h
[1] = system: OVCAR-4
[2] = system: UO-31
[3] = system: U-251
[4] = system: OVCAR-3
[5] = system: COLO 205
[6] = system: MDA-MB-231
[7] = system: HOP-62
[8] = system: MDA-MB-435
[9] = system: DU-145
[10] = system: Malme-3M
[11] = system: UACC-62
[12] = system: PC-3
[13] = system: CCRF-CEM
[14] = system: CAKI-1
[15] = system: SF-539
[16] = system: SF-268
[17] = system: HCC 2998
[18] = system: NCI-H460
[19] = system: HOP-92
[20] = system: RPMI-8226

| Compound | GI50 [1] | GI50 [2] | GI50 [3] | GI50 [4] | GI50 [5] | GI50 [6] | GI50 [7] | GI50 [8] | GI50 [9] | GI50 [10] | GI50 [11] | GI50 [12] | GI50 [13] | GI50 [14] | GI50 [15] | GI50 [16] | GI50 [17] | GI50 [18] | GI50 [19] | GI50 [20] |
| --- | --- | --- | --- | --- | --- | --- | --- | --- | --- | --- | --- | --- | --- | --- | --- | --- | --- | --- | --- | --- |
| O=[N+]([O-])c1ccc2nc(O)c(/C=C(\O)c3ccccc3)nc2c1 | 2.86 µM (inactive) | 48.9 µM (inactive) | 5.42 µM (inactive) | 27.9 µM (inactive) | > 100 µM (inactive) | 3.57 µM (inactive) | 5.52 µM (inactive) | 35.2 µM (inactive) | > 100 µM (inactive) | 55.8 µM (inactive) | 24.4 µM (inactive) | 28.8 µM (inactive) | > 100 µM (inactive) | 21.4 µM (inactive) | 15.3 µM (inactive) | 13.9 µM (inactive) | > 100 µM (inactive) | 3.83 µM (inactive) |  |  |
| C=C(C)C(=O)N1c2ccc(OC)cc2CC1C(=O)OCC (stereo not given) | > 100 µM (inactive) | > 100 µM (inactive) | > 100 µM (inactive) | > 100 µM (inactive) | > 100 µM (inactive) | > 100 µM (inactive) | > 100 µM (inactive) |  | > 100 µM (inactive) |  | > 100 µM (inactive) | > 100 µM (inactive) | > 100 µM (inactive) | > 100 µM (inactive) | > 100 µM (inactive) | > 100 µM (inactive) | > 100 µM (inactive) | > 100 µM (inactive) |  |  |
| CC(=O)N[C@@H](Cc1ccc(O)cn1)C(=O)NCc1ccc(Cl)cc1 | > 100 µM (inactive) | > 100 µM (inactive) | > 100 µM (inactive) | > 100 µM (inactive) | > 100 µM (inactive) |  | > 100 µM (inactive) | > 100 µM (inactive) | > 100 µM (inactive) | > 100 µM (inactive) | > 100 µM (inactive) | > 100 µM (inactive) | 31.5 µM (inactive) | > 100 µM (inactive) | > 100 µM (inactive) |  | > 100 µM (inactive) | > 100 µM (inactive) | 94.4 µM (inactive) | > 100 µM (inactive) |
| O=c1c2ccccc2n2nnc3ccc(NCCCNCCNCCCNc4ccc5nnn6c7ccccc7c(=O)c4c56)c1c32 | 2.3 µM (inactive) | 2.86 µM (inactive) | 0.759 µM (active) | 6.35 µM (inactive) | 1.39 µM (inactive) | 1.01 µM (active) | 2.99 µM (inactive) |  | 5.77 µM (inactive) | 5.83 µM (inactive) | 14.1 µM (inactive) | 3.21 µM (inactive) | 0.448 µM (active) | 3.86 µM (inactive) | 0.724 µM (active) | 1.79 µM (inactive) | 0.308 µM (active) | 0.505 µM (active) | > 10.6 µM (inactive) | 0.716 µM (active) |
| COc1ccc(C)cc1NC(=S)N/N=C/c1ccc(SC)cc1 | 57.8 µM (inactive) | 84.3 µM (inactive) |  | 38.9 µM (inactive) | 40.1 µM (inactive) |  | 28.8 µM (inactive) | 38.4 µM (inactive) | 66.8 µM (inactive) | 96.4 µM (inactive) | > 100 µM (inactive) | 75 µM (inactive) | 54.8 µM (inactive) | 47.6 µM (inactive) | 27.8 µM (inactive) | > 100 µM (inactive) |  |  | 93.5 µM (inactive) | 27.9 µM (inactive) |
| CN(C)CCNC(=O)Cn1ccc(=O)c2ccc([N+](=O)[O-])cc21 | 17.5 µM (inactive) | > 100 µM (inactive) | > 100 µM (inactive) | 38.2 µM (inactive) | 47.1 µM (inactive) |  | > 100 µM (inactive) | > 100 µM (inactive) | > 100 µM (inactive) | 44.7 µM (inactive) | > 100 µM (inactive) | > 100 µM (inactive) | > 100 µM (inactive) | > 100 µM (inactive) | > 100 µM (inactive) | > 100 µM (inactive) | > 100 µM (inactive) | > 100 µM (inactive) | > 100 µM (inactive) | > 100 µM (inactive) |
| Cc1nc(-c2ccc(/N=C/c3ccc(N(CCOS(C)(=O)=O)CCOS(C)(=O)=O)cc3C)cc2)cs1 | 59.6 µM (inactive) | 18.7 µM (inactive) | 36.9 µM (inactive) | 30.8 µM (inactive) | 28.5 µM (inactive) | 72.8 µM (inactive) | 35.1 µM (inactive) | 72.9 µM (inactive) | 11.5 µM (inactive) | 28.9 µM (inactive) | 9.59 µM (inactive) | 20.9 µM (inactive) | 3.65 µM (inactive) |  | 3.04 µM (inactive) | 5.14 µM (inactive) | 30 µM (inactive) | 9.46 µM (inactive) |  | 17.8 µM (inactive) |
| S=C(S)NCC1CCC(CNC(=S)S)CC1 (stereo not given) | 42.8 µM (inactive) | 30.9 µM (inactive) | 20.1 µM (inactive) | 16.5 µM (inactive) | 42 µM (inactive) | 29.2 µM (inactive) | 20.7 µM (inactive) | 23.3 µM (inactive) | 26 µM (inactive) | 22.8 µM (inactive) | 34.4 µM (inactive) | 17.8 µM (inactive) | 10.7 µM (inactive) | 16.9 µM (inactive) | 38.5 µM (inactive) | 39.2 µM (inactive) | 20.4 µM (inactive) | 70.5 µM (inactive) |  | 9.18 µM (inactive) |
| Cc1cccc2c1C(=O)[C@@](C)([C@]1(C)Nc3cccc(C)c3C1=O)N2 | > 100 µM (inactive) | > 100 µM (inactive) | > 100 µM (inactive) | > 100 µM (inactive) | > 100 µM (inactive) | > 100 µM (inactive) | > 100 µM (inactive) | 31.1 µM (inactive) | > 100 µM (inactive) | > 100 µM (inactive) | > 100 µM (inactive) | 38.7 µM (inactive) | 49.4 µM (inactive) | > 100 µM (inactive) | > 100 µM (inactive) | > 100 µM (inactive) | > 100 µM (inactive) | > 100 µM (inactive) |  | 11 µM (inactive) |
| O=C1/C(=C/c2ccc(Br)s2)NC(=S)N1CN1CCOCC1 | 61.9 µM (inactive) | 37.5 µM (inactive) | 43 µM (inactive) | 59.3 µM (inactive) | 33 µM (inactive) | 99.8 µM (inactive) | > 100 µM (inactive) | 56.9 µM (inactive) | 53.2 µM (inactive) | > 100 µM (inactive) | 20.2 µM (inactive) | 78.9 µM (inactive) |  | 25.2 µM (inactive) |  | 87.7 µM (inactive) | > 100 µM (inactive) | 49.8 µM (inactive) |  | 16.7 µM (inactive) |
| CCCCn1c(CSc2ccc(Cl)cc2)c(C(=O)OCC)c2cc(OC)c(Br)cc21 | > 100 µM (inactive) | > 100 µM (inactive) | > 100 µM (inactive) | > 100 µM (inactive) | > 100 µM (inactive) | > 100 µM (inactive) | > 100 µM (inactive) | > 100 µM (inactive) | > 100 µM (inactive) | > 100 µM (inactive) | > 100 µM (inactive) | > 100 µM (inactive) | > 100 µM (inactive) | 31.5 µM (inactive) |  | > 100 µM (inactive) | > 100 µM (inactive) | > 100 µM (inactive) |  | > 100 µM (inactive) |
| Cn1c(=O)cc(NCc2ccc(Cl)cc2)[nH]c1=O | > 100 µM (inactive) | 51.5 µM (inactive) | 40.3 µM (inactive) | > 100 µM (inactive) | > 100 µM (inactive) | 49.2 µM (inactive) | 22.4 µM (inactive) | > 100 µM (inactive) |  | 73.3 µM (inactive) | 30.8 µM (inactive) | > 100 µM (inactive) |  | > 100 µM (inactive) | 32.4 µM (inactive) | 18.8 µM (inactive) | 99.5 µM (inactive) | > 100 µM (inactive) | 19.3 µM (inactive) | > 100 µM (inactive) |
| Cc1ccc(S(=O)(=O)NC(=O)NC(Cc2ccc(O)cc2)C(=O)O)cc1 (stereo not given) | > 100 µM (inactive) | > 100 µM (inactive) | > 100 µM (inactive) |  | > 100 µM (inactive) | > 100 µM (inactive) | > 100 µM (inactive) |  | > 100 µM (inactive) | > 100 µM (inactive) |  | > 100 µM (inactive) | > 100 µM (inactive) |  | > 100 µM (inactive) | > 100 µM (inactive) |  | > 100 µM (inactive) | > 100 µM (inactive) | > 100 µM (inactive) |
| COc1cc2nc(-c3cccs3)nc(Nc3cccc([N+](=O)[O-])c3)c2cc1OC | 30.9 µM (inactive) | 19.2 µM (inactive) | 17.3 µM (inactive) | 20.7 µM (inactive) | 19.3 µM (inactive) | 18 µM (inactive) | 18.7 µM (inactive) | 17 µM (inactive) | 16.3 µM (inactive) | 18.9 µM (inactive) | 16.8 µM (inactive) | 19.6 µM (inactive) | 31.5 µM (inactive) | 21.9 µM (inactive) | 18.2 µM (inactive) | 20.3 µM (inactive) |  | 26.3 µM (inactive) |  | 28.1 µM (inactive) |
| COc1ccccc1N1CCN(CCCNC(=O)c2cc(Cl)c(N)c(Cl)c2)CC1 | 52 µM (inactive) | 21.9 µM (inactive) | 27 µM (inactive) |  | > 10 µM (inactive) | 22.9 µM (inactive) | 29.7 µM (inactive) | 40.2 µM (inactive) | 88.1 µM (inactive) | 18.8 µM (inactive) | 35 µM (inactive) |  | 29.7 µM (inactive) |  | 28.6 µM (inactive) | 77.4 µM (inactive) | 21.5 µM (inactive) | 23.3 µM (inactive) | 4.36 µM (inactive) | 18.7 µM (inactive) |
